Patent US20200345721A1, “Device for Deterring Abuse of Drugs” (EIGHTY EIGHT PHARMA, INC., priority 2019, published 2020)
Where a name gives a salt, the structure may show the parent alone. Read-outs that look alike come from different tables or passages of the source.

Key:
[1] = Solubility of naltrexone in ethanol/water; assay type: physicochemical
Description: A solution of naltrexone in 60% Ethanol/40% water at a concentration of 19 mg/ml was achieved without precipitation.
To determine a formulation which will deposit 3.6-9.6 mg of Naltrexone onto small IR tablets within a specified period of time, the ratio of ethanol to water was adjusted to increase solubility of Naltrexone.

[2] = Naltrexone recovered from IR and ER tablets, 23 mg/mL solutions (Example 4); settings: 23 mg/ml ethanol/water solution, lower proportion of ethanol
Description: To compare formulations of Naltrexone and Naltrexone HCl which will deposit 3.6-9.6 mg of Naltrexone onto small IR tablets, small extended release (“ER”) tablets and large ER tablets, Naltrexone (23 mg/ml) and Naltrexone HCl (23 mg/ml) solutions were used. Six (6) small IR tablets (Homeopathy Blank 5 Grain, Lactose, Lot #: 07090710H3, Exp. 08/23), six (6) small ER Tablets (Mucus Relief Guaifenesin Extended-Release Tablets, 600 mg, Lot #: F07210, Exp. 04/20), and three (3) large ER tablets (Mucus Relief Guaifenesin Extended-Release Tablets, 1200 mg, Lot #: F08474, Exp. 05/20) were tested. Tablets were placed in test tubes or kept in their blister packaging and spiked with a 23 mg/mL spiking solution containing either Naltrexone Base or Naltrexone HCl. Small tablets (IR and ER) were divided into two groups of 3 and coated with a solution prepared with either Naltrexone base (23 mg/ml) or Naltrexone HCl (23 mg/ml). Large ER tablets were spiked with Naltrexone base solution only while remaining in their original blister packaging. Each tablet remained in solution for a period of 2, 6 or 10 minutes before removal and testing form Naltrexone. The large ER tablets spiked with Naltrexone NCl were not completed due to time limitations

animals = settings: cited from earlier work
humans = settings: 800 mg daily for up to one week, human subjects; cited from earlier work
[3] = Naltrexone HCl solubility, HPLC analysis; assay type: physicochemical; settings: for solubility at 2 h / solubility at 1 h / solubility: thermodynamic from solid; for solubility at 1 h: sample 50 mg/mL
Description: To determine the solubility of Naltrexone HCl in solutions of 100% water or 60%/40% Ethanol/water, solutions of Naltrexone HCl were prepared at 50 mg/mL and 100 mg/mL in 100% water or 60%/40% ethanol/water for a total of 4 solutions. Solutions were vortex mixed, placed on a mechanical shaker and evaluated every 30 minutes for complete dissolution. Once fully dissolved, each solution was prepared for HPLC by diluting to 2 mg/mL in methanol and 0.1M phosphoric acid and analyzed on an HPLC.
The 50 mg/mL samples were fully dissolved into solution following 1 hour on the mechanical shaker with periodic vortex mixing. The 100 mg/mL solution prepared in the ethanol/water mixture was dissolved after a total of 2 hours shaking with periodic vertex mixing. The 100 mg/mL solution in 100% water was also sonicated. HPLC results are included in Table 3.

guinea pig = settings: cited from earlier work
[4] = system: pharmacologic effects of 25 mg of intravenously administered heroin; settings: cited from earlier work
rat = settings: cited from earlier work

| SMILES | concentration achieved without precipitation ([1]; 60% Ethanol/40% water) | final concentration of solution, titrated with water until precipitates formed ([1]; 75:25 ethanol to water) | stability of the solution [2] | cause of mortalities (animals; high-dose administration, animals) | evidence of toxicity (humans) | time on mechanical shaker until fully dissolved ([3]; 50 mg/mL samples, periodic vortex mixing) | total shaking time until dissolved ([3]; 100 mg/mL in ethanol/water mixture) | solubility at 2 h ([3]; 60%/40% ethanol/water, aqueous with cosolvent or surfactant or cyclodextrin, 60%/40% ethanol/water, read-out: solubility (soluble up to)) | solubility at 1 h ([3]; 60:40 ethanol:water, aqueous with cosolvent or surfactant or cyclodextrin, 60:40 Ethanol:water, HPLC, read-out: Solubilized Concentration) | solubility at 2 h ([3]; 60:40 ethanol:water, aqueous with cosolvent or surfactant or cyclodextrin, sample 100 mg/mL, 60:40 Ethanol:water, HPLC, read-out: Solubilized Concentration) | solubility ([3]; 100% water, water, 100% water, read-out: solubility (soluble up to)) | solubility at 1 h ([3]; 100% water, water, 100% water, HPLC, read-out: Solubilized Concentration) | solubility ([3]; 100% water, water, sample 100 mg/mL, 100% water, HPLC, read-out: Solubilized Concentration) | oral LD50 (guinea pig) | duration of blockade of pharmacologic effects of heroin ([4]; 50 mg naltrexone hydrochloride vs 25 mg intravenous heroin) | duration of blockade ([4]; doubling the dose of naltrexone hydrochloride) | duration of blockade ([4]; tripling the dose of naltrexone hydrochloride) | oral LD50 (rat) | signs produced by high doses (animals; high doses, generally >1,000 mg/kg) |
| --- | --- | --- | --- | --- | --- | --- | --- | --- | --- | --- | --- | --- | --- | --- | --- | --- | --- | --- | --- |
| O=C1CC[C@@]2(O)[C@H]3Cc4ccc(O)c5c4[C@@]2(CCN3CC2CC2)[C@H]1O5 [Naltrexone Base, naltrexone] | 19000 µg/mL | 37.5 mg/mL | comes out of solution over time | tonic-clonic convulsions and/or respiratory failure |  |  |  |  |  |  |  |  |  |  |  |  |  |  |  |
| O=C1CC[C@@]2(O)[C@H]3Cc4ccc(O)c5c4[C@@]2(CCN3CC2CC2)[C@H]1O5 [Naltrexone HCl, naltrexone hydrochloride] |  |  |  |  | no evidence of toxicity | 1 h | 2 h | ≥ 100 mg/mL | 48.6 mg/mL | 96.1 mg/mL | ≥ 100 mg/mL | 49 mg/mL | 96.9 mg/mL | 1,490 mg/kg | ≤ 24 hours | 48 h | about 72 hours | 1,450 mg/kg | salivation, depression/reduced activity, tremors, and convulsions |
